What was measured:
[1] = tested on: herpes virus type 2 (HHV-2); conditions: cited from earlier work
ZIKV/Col [2] = assay: Intracellular quantification of viral protein by cell-ELISA, ZIKV/Col; format: cell-based, Zika virus; conditions: all concentrations evaluated (3.1-25.0 μg/mL)
ZIKV/Col [3] = assay: Quantification of intracellular viral genome by qRT-PCR, ZIKV/Col; format: cell-based, Zika virus
ZIKV strain (COL345Si) = assay: Post-infection stage evaluation assay (plaque), ZIKV COL345Si
Vero-E6 cells = assay: Cytotoxicity CC100 in Vero-E6 cells (72 h); conditions: Vero-E6 cells, 72h
ZIKV/Col [4] = assay: Quantification of infectious viral particles by plaque assay, ZIKV/Col post-treatment; format: cell-based, Zika virus; conditions: for percentage of infection (infectious viral particles, plaque assay): ZIKV/Col, Vero cells, post-treated, vs untreated control 100%
[5] = tested on: endemic chikungunya virus of Colombian origin; assay: Post-infection stage evaluation assay (plaque), CHIKV
DENV-2 = conditions: postinfection stages; cited from earlier work
Zika_459148 virus strain = assay: Post-infection stage evaluation assay (plaque), Zika_459148
[6] = MTT cytotoxicity assay (CC50); conditions: chlorocebus sabaeus
[7] = tested on: CHIKV (Chikungunya virus); assay: End-point titration technique (EPTT), viral titer reduction factor, CHIKV in Vero E6; format: cell-based; conditions: Vero E6, 10TCID50, EPTT
ZIKV (Zika virus) = assay: Plaque reduction assay (PFU), ZIKV in Vero E6; format: cell-based
[8] = tested on: DENV-2 (Dengue virus type 2); assay: Plaque reduction assay (PFU), DENV-2 in BHK21; format: cell-based; conditions: DENV-2, BHK21, PFU/well 150 ± 25
BHK-21 cells = assay: Cytotoxicity CC100 in BHK-21 cells (6 days)
[9] = tested on: Colombian Zika virus strains; assay: Anti-Zika EC50 summarised over Colombian strains (abstract); format: cell-based; conditions: read-out: EC50 against Colombian Zika virus strains

CC(C)c1cc2c(cc1O)[C@@]1(C)CCC[C@@](C)(CN3C(=O)c4ccccc4C3=O)[C@@H]1CC2 [Compound 6, 18-(phthalimid-2-yl)ferruginol]
EC50 [1]: 19.2 µM
viral protein production, percentages of infection (ZIKV/Col [2]): below 50%
number of genome copies/mL, percentage of untreated control (ZIKV/Col [3]; 3.1 μg/mL): 125.9%
replication of viral genome (ZIKV/Col [3]; cultures treated with 6.2, 12.5, and 25.0 μg/mL): significantly inhibited
SI (CC50/EC50) (ZIKV strain (COL345Si); ZIKV COL345Si, 6 days): 15
EC50 (ZIKV strain (COL345Si); Zika virus, 144 h, read-out: EC50 ZIKV strain COL345Si): 5.3 ± 2.9 µM
CC100 (100% cytotoxic concentration) (Vero-E6 cells): >50 µg/mL
percentage of infection (infectious viral particles, plaque assay) (ZIKV/Col [4]; 3.1 μg/mL): 62.7%
percentage of infection (infectious viral particles, plaque assay) (ZIKV/Col [4]; 6.2 μg/mL): 31.3%
percentage of infection (infectious viral particles, plaque assay) (ZIKV/Col [4]; 12.5 μg/mL): 20.9%
percentage of infection (infectious viral particles, plaque assay) (ZIKV/Col [4]; 25.0 μg/mL): 7.0%
EC50 (ZIKV/Col [4]; Zika virus, read-out: EC50 ZIKV/Col): 9.9 µM
SI (CC50/EC50) ([5]; CHIKV): 19.6
EC50 ([5]; Chikungunya virus, read-out: EC50 chikungunya virus): 9.8 µM
EC50 (DENV-2): 1.4 µM
EC50 (Zika_459148 virus strain; Zika virus, Vero C1008, 72 h, read-out: EC50 anti-Zika_459148 virus): 6.3 ± 2.7 µM
SI (CC50/EC50) (Zika_459148 virus strain; Zika_459148, 72 h): 30
CC50 at 72 h [6]: 192 µM
CC50 at 144 h [6]: 80.8 µM
Rf (reduction factor of the viral titer) [7]: 10^2
Nontoxic concentration that showed a higher viral reduction factor, in μM (ZIKV (Zika virus); ZIKV PFU assay, conversion of 3.1 μg/mL): ca. 7.2 μM
% inhibition (PFU) (ZIKV (Zika virus); ZIKV, Vero E6, PFU/well 150 ± 25): 52 ± 13%
% inhibition (PFU) [8]: 91 ± 7%
CC100 (100% cytotoxic concentration) (BHK-21 cells): >50 µg/mL
EC50 [9]: 5 to 10 µM
